Here are results for one molecule from BindingDB's records for PubMed 35119267 (University of Toronto Mississauga, 2022).

Molecules are shown by their SMILES.

This assay addresses Histone deacetylase 3 (Homo sapiens, UniProt O15379). In words: Inhibition of full length human recombinant HDAC3 expressed in Sf9 baculovirus system using FAM-labeled acetylated peptide as substrate by measuring fluorescence intensity by EMSA method.

Histone deacetylase 3, sequence (O15379 whole entry): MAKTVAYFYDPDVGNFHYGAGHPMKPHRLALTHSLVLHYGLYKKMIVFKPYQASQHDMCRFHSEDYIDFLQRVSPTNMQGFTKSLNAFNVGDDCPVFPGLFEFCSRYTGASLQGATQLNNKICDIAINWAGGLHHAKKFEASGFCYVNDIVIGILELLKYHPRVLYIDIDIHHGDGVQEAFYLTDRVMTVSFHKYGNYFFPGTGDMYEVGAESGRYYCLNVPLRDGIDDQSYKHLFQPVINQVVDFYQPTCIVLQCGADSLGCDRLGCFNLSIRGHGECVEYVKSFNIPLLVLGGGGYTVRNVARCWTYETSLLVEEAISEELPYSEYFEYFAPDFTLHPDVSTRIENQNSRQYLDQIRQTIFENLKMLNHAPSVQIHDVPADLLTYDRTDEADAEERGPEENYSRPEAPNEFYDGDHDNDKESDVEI

`O=C(NO)c1ccc(CN(C2CC2)S(=O)(=O)c2cc(F)c(F)c(F)c2F)cc1`: the IC50 was greater than 1 µM.
